Test results as given in ChEMBL document CHEMBL3593175, “Bicyclic [3.3.0]-Octahydrocyclopenta[c]pyrrolo Antagonists of Retinol Binding Protein 4: Potential Treatment of Atrophic Age-Related Macular Degeneration and Stargardt Disease” (J Med Chem, 2015).

Key:
[1] = target: T1, Retinol-binding protein 4 (Homo sapiens, UniProt P02753); test: Displacement of [3H]-retinol from RBP4 (unknown origin) by scintillation proximity assay
[2] = target: T1, Retinol-binding protein 4; test: Inhibition of retinol-induced interaction of bacterially expressed MBP-tagged RBP4 (unknown origin) with Eu3+ cryptate labeled TTR by HTRF assay
[3] = Metabolic stability in human liver microsomes assessed as compound remaining at 10 uM after 30 mins; assay type: ADME; settings: read-out: Stability
[4] = Metabolic stability in rat liver microsomes assessed as compound remaining at 10 uM after 30 mins; assay type: ADME; settings: read-out: Stability

Row | SMILES | IC50 [1] [nM] | IC50 [2] [nM] | remaining at 0.5 h, 10 µM [3] [%] | remaining at 0.5 h, 10 µM [4] [%]
1 | Cc1ccc(C(=O)O)c(N2C[C@H]3C[C@@H](c4ccccc4C(F)(F)F)C[C@H]3C2)n1 | 68.4 | 2000 |  | 
2 | O=C(O)c1cccc(N2C[C@H]3C[C@@H](c4ccccc4C(F)(F)F)C[C@H]3C2)c1 | 83.2 | 3960 |  | 
3 | Cc1nc(N2C[C@H]3C[C@@H](c4ccccc4C(F)(F)F)C[C@H]3C2)ncc1C(=O)O | 40.8 | 523 |  | 
4 | Cc1cc(C(=O)O)nc(N2C[C@@H]3CN(c4ccccc4C(F)(F)F)C[C@@H]3C2)n1 | 57.4 | 140 | 80 | 76

Now from value to compound:

Row | IC50 [1] [nM] | IC50 [2] [nM] | remaining at 0.5 h, 10 µM [3] [%] | remaining at 0.5 h, 10 µM [4] [%] | SMILES
5 | 20.8 |  |  |  | O=C(O)c1ccnc(N2C[C@H]3C[C@@H](c4ccccc4C(F)(F)F)C[C@H]3C2)n1
6 | 166 |  |  |  | O=C(O)c1cncc(N2C[C@H]3C[C@@H](c4ccccc4C(F)(F)F)C[C@H]3C2)n1
